The EC50 is the concentration that produces a half-maximal response. High values mean a less potent agent, low ones a more potent agent.

Numbered stars: 1 amine (or outer) side, 2 acyl side, 3 side chain; on linkers, the order of the positions; unused ones are H or OH. Bridge positions count the residues as written; N and C are the ends. Square brackets hold non-standard residues; d marks the D form. Peptide text beside a SMILES is read from it. Abu(4-yl) = O=C([C@H](CC[*:3])N[*:1])[*:2]; Dab = NCC[C@H](N)C(=O)O; Dap = NC[C@H](N)C(=O)O

Drawing on patent US20180022780A1, “STABILIZATION ADRENOMEDULLIN DERIVATIVES AND USE THEREOF” (priority 2014, published 2018), this text covers EC50 for four compounds.

T1 sequence (Q16602 23-461): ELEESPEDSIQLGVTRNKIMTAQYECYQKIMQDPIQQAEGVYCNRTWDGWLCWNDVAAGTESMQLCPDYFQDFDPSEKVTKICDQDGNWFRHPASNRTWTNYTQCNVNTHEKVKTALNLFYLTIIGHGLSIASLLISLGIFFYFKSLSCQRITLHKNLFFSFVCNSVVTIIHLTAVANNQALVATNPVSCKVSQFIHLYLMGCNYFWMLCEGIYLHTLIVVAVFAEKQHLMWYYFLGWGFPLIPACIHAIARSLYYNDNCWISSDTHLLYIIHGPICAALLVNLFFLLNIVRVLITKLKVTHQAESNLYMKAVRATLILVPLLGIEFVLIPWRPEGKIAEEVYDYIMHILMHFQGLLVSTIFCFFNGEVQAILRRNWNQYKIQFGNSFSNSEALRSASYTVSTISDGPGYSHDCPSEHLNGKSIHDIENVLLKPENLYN
T1 sequence (O60895 43-175): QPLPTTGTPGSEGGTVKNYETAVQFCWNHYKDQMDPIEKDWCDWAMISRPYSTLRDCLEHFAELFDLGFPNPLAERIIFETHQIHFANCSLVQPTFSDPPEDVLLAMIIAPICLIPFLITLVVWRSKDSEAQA

The assay addresses T1, CLR fused to EYFP and RAMP2 fused to ECFP (Homo sapiens, UniProt O60895+Q16602).
T1 construct: EYFP; ECFP; expressed in transfected cells; host or cells: HEK-293 cells, transient co-transfection
As to the kind of experiment: cAMP assay (CRE luciferase reporter, HEK-293 cells transiently co-transfected with CLR and RAMP2). It is filed as cell-based. As to conditions: Table 2, cAMP assay; HEK-293, CLR/RAMP2, CRE luciferase, 3 h stimulation, normalized to [G^14]ADM(14-52). How it is done: HEK-293 cells (human embryonic kidney cells) were cultured in Ham's F-12/DMEM (1/1; v/v) containing 15% FCS under humidified atmosphere at 37° C. and 5% CO2 in 75 cm^2 cell culture flasks.
Cells were cultured in 75 cm^2 flasks to 70-80% confluency. 45 μl Metafectene® Pro was diluted in 900 μl Ham's F-12/DMEM (1/1; v/v) and incubated for 20 min at room temperature. 9000 ng plasmid containing DNA of CLR fused to EYFP and 3000 ng plasmid containing DNA of RAMP2 fused to ECFP were dissolved in 900 μl Ham's F-12/DMEM (1/1; v/v). The plasmid solution was mixed with the Metafectene® Pro solution and incubated for 25 min at room temperature. Medium was removed from the cells and replaced by 6 ml Ham's F-12/DMEM (1/1; v/v) containing 15% FCS. After addition of transfection solution the cells were incubated for 3 h under humidified atmosphere at 37° C. and 5% CO2.
For the second transfection 45 μl Metafectene® Pro was diluted in 900 μl Ham's F-12/DMEM (1/1; v/v) and incubated for 20 min at room temperature. 12000 ng of pGL4.29[luc2P/CRE/Hygro] plasmid containing DNA for the luciferase reporter gene luc2P (with CRE promotor region) were dissolved in 900 μl Ham's F-12/DMEM (1/1; v/v). The plasmid solution was mixed with the Metafectene® Pro solution and incubated for 25 min at room temperature. Medium was removed from the cells and replaced by 6 ml Ham's F-12/DMEM (1/1; v/v) containing 15% FCS. After addition of transfection solution the cells were incubated under humidified atmosphere at 37° C. and 5% CO2 over night.
For the coating of 96-well-plates 50 μl of a Poly-D-Lysine solution (1 ml stock solution of Poly-D-Lysin-hydrobromid/10 ml DPBS) were pipetted in each well and incubated for 40 min. After removal of the Poly-D-Lysine each well was washed with 50 μl DPBS. Transiently transfected cells were detached from the cell culture flask by removal of the medium, twofold washing with 5 m1 DPBS and resuspending in 13 ml Ham's F-12/DMEM (1/1; v/v) containing 15% FCS. 90000 to 120000 cells in 150 μl Ham's F-12/DMEM (1/1; v/v) containing 15% FCS were seeded per well and the plates were incubated under humidified atmosphere at 37° C. and 5% CO2 over night.
For each ligand a serial dilution giving eight different concentrations was prepared using Ham's F-12/DMEM (1/1; v/v). Before stimulation the medium on the cells was replaced by 100 μl Ham's F-12/DMEM (1/1; v/v) and the plates were incubated for 1 h under humidified atmosphere at 37° C. and 5% CO2. For stimulation the medium was removed again and the cells were incubated for 3 h in 80 μl of ligand-solution under humidified atmosphere at 37° C. and 5% CO2. In addition 80 μl of a 5 μM forskolin solution (in Ham's F-12/DMEM (1/1; v/v)) was used as a positive control and 80 μl of Ham's F-12/DMEM (1/1; v/v) as a negative control. Each concentration and the controls were tested as triplicates.
After 3 h of stimulation, the solutions were removed and the cells were washed with 50 μl of Ham's F-12/DMEM (1/1; v/v) per well. After 10 min incubation in 30 μl of Ham's F-12/DMEM (1/1; v/v) at room temperature, 30 μl of luciferase-solution (ONE-Glo™ Luciferase Assay System) was added and the luminescence was directly measured using an Infinite M200 (Tecan).
Data analysis of the luminescence measurement was carried out with GraphPad Prism 5. Therefore the measured luminescence values of each plate were first corrected on the base of the respective average of forskolin stimulation. Afterwards they were normalized to [G^14]ADM(14-52) which was used as standard peptide in every assay. After correction and normalization data was analysed using non-linear regression giving dose-response curves for each tested ligand.
Compound `CC[C@H](C)[C@H](NC(=O)[C@H](CCC(N)=O)NC(=O)[C@H](Cc1c[nH]cn1)NC(=O)[C@H](C)NC(=O)[C@H](CC(C)C)NC(=O)[C@H](CCCCN)NC(=O)[C@H](CCC(N)=O)NC(=O)[C@@H](NC(=O)[C@@H](NC(=O)[C@@H]1CCC(=O)NC[C@H](NC(=O)CNC(=O)CN)C(=O)N[C@@H](CCCNC(=N)N)C(=O)N[C@@H](Cc2ccccc2)C(=O)NCC(=O)N[C@@H]([C@@H](C)O)C(=O)N1)[C@@H](C)O)C(C)C)C(=O)N[C@@H](Cc1ccc(O)cc1)C(=O)N[C@@H](CCC(N)=O)C(=O)N[C@@H](Cc1ccccc1)C(=O)N[C@H](C(=O)N[C@@H](CC(=O)O)C(=O)N[C@@H](CCCCN)C(=O)N[C@@H](CC(=O)O)C(=O)N[C@@H](CCCCN)C(=O)N[C@@H](CC(=O)O)C(=O)N[C@@H](CC(N)=O)C(=O)N[C@H](C(=O)N[C@@H](C)C(=O)N1CCC[C@H]1C(=O)N[C@@H](CCCNC(=N)N)C(=O)N[C@@H](CO)C(=O)N[C@@H](CCCCN)C(=O)N[C@H](C(=O)N[C@@H](CO)C(=O)N1CCC[C@H]1C(=O)N[C@@H](CCC(N)=O)C(=O)NCC(=O)N[C@@H](Cc1ccc(O)cc1)C(N)=O)[C@@H](C)CC)C(C)C)[C@@H](C)O` [Example 7, ((3S,9S,12S,15S,21S)-15-(2-(2-aminoacetamido)acetamido)-9-benzyl-12-(3-guanidinopropyl)-3-((R)-1-hydroxyethyl)-2,5,8,11,14,18-hexaoxo-1,4,7,10,13,17-hexaazacyclohenicosane-21-carbonyl)-L-threonyl-ADM(22-52)] (H-GG[Dap]RFGTETVQKLAHQIYQFTDKDKDNVAPRSKISPQGY-NH2; lactam 3-8) gave an EC50 of 2.9 nM. Regarding `CC[C@H](C)[C@H](NC(=O)[C@H](CCC(N)=O)NC(=O)[C@H](Cc1c[nH]cn1)NC(=O)[C@H](C)NC(=O)[C@H](CC(C)C)NC(=O)[C@H](CCCCN)NC(=O)[C@H](CCC(N)=O)NC(=O)[C@@H](NC(=O)[C@@H](NC(=O)[C@@H]1CCC(=O)NCC[C@H](NC(=O)CNC(=O)CN)C(=O)N[C@@H](CCCNC(=N)N)C(=O)N[C@@H](Cc2ccccc2)C(=O)NCC(=O)N[C@@H]([C@@H](C)O)C(=O)N1)[C@@H](C)O)C(C)C)C(=O)N[C@@H](Cc1ccc(O)cc1)C(=O)N[C@@H](CCC(N)=O)C(=O)N[C@@H](Cc1ccccc1)C(=O)N[C@H](C(=O)N[C@@H](CC(=O)O)C(=O)N[C@@H](CCCCN)C(=O)N[C@@H](CC(=O)O)C(=O)N[C@@H](CCCCN)C(=O)N[C@@H](CC(=O)O)C(=O)N[C@@H](CC(N)=O)C(=O)N[C@H](C(=O)N[C@@H](C)C(=O)N1CCC[C@H]1C(=O)N[C@@H](CCCNC(=N)N)C(=O)N[C@@H](CO)C(=O)N[C@@H](CCCCN)C(=O)N[C@H](C(=O)N[C@@H](CO)C(=O)N1CCC[C@H]1C(=O)N[C@@H](CCC(N)=O)C(=O)NCC(=O)N[C@@H](Cc1ccc(O)cc1)C(N)=O)[C@@H](C)CC)C(C)C)[C@@H](C)O` [Example 11, ((2S,5S,11S,14S,21S)-21-(2-(2-aminoacetamido)acetamido)-5-benzyl-2-(3-guanidinopropyl)-11-((R)-1-hydroxyethyl)-3,6,9,12,17,22-hexaoxo-1,4,7,10,13,18-hexaazacyclodocosane-14-carbonyl)-L-threonyl-ADM(22-52)] (H-GG[Dab]RFGTETVQKLAHQIYQFTDKDKDNVAPRSKISPQGY-NH2; lactam 3-8), the EC50 was determined as 84 nM. To `CC[C@H](C)[C@H](NC(=O)[C@H](CCC(N)=O)NC(=O)[C@H](Cc1c[nH]cn1)NC(=O)[C@H](C)NC(=O)[C@H](CC(C)C)NC(=O)[C@H](CCCCN)NC(=O)[C@H](CCC(N)=O)NC(=O)[C@@H](NC(=O)[C@@H](NC(=O)[C@@H]1CC(=O)NC[C@H](NC(=O)CNC(=O)CN)C(=O)N[C@@H](CCCNC(=N)N)C(=O)N[C@@H](Cc2ccccc2)C(=O)NCC(=O)N[C@@H]([C@@H](C)O)C(=O)N1)[C@@H](C)O)C(C)C)C(=O)N[C@@H](Cc1ccc(O)cc1)C(=O)N[C@@H](CCC(N)=O)C(=O)N[C@@H](Cc1ccccc1)C(=O)N[C@H](C(=O)N[C@@H](CC(=O)O)C(=O)N[C@@H](CCCCN)C(=O)N[C@@H](CC(=O)O)C(=O)N[C@@H](CCCCN)C(=O)N[C@@H](CC(=O)O)C(=O)N[C@@H](CC(N)=O)C(=O)N[C@H](C(=O)N[C@@H](C)C(=O)N1CCC[C@H]1C(=O)N[C@@H](CCCNC(=N)N)C(=O)N[C@@H](CO)C(=O)N[C@@H](CCCCN)C(=O)N[C@H](C(=O)N[C@@H](CO)C(=O)N1CCC[C@H]1C(=O)N[C@@H](CCC(N)=O)C(=O)NCC(=O)N[C@@H](Cc1ccc(O)cc1)C(N)=O)[C@@H](C)CC)C(C)C)[C@@H](C)O` [Example 3, ((2S,5S,11S,14S,19S)-19-(2-(2-aminoacetamido)acetamido)-5-benzyl-2-(3-guanidinopropyl)-11-((R)-1-hydroxyethyl)-3,6,9,12,16,20-hexaoxo-1,4,7,10,13,17-hexaazacycloicosane-14-carbonyl)-L-threonyl-ADM(22-52)] (H-GG[Dap]RFGTDTVQKLAHQIYQFTDKDKDNVAPRSKISPQGY-NH2; lactam 3-8) belongs 67 nM; to `CC[C@H](C)[C@H](NC(=O)[C@H](CCC(N)=O)NC(=O)[C@H](Cc1c[nH]cn1)NC(=O)[C@H](C)NC(=O)[C@H](CC(C)C)NC(=O)[C@H](CCCCN)NC(=O)[C@H](CCC(N)=O)NC(=O)[C@@H](NC(=O)[C@@H](NC(=O)[C@@H]1CSCC[C@H](NC(=O)CNC(=O)CN)C(=O)N[C@@H](CCCNC(=N)N)C(=O)N[C@@H](Cc2ccccc2)C(=O)NCC(=O)N[C@@H]([C@@H](C)O)C(=O)N1)[C@@H](C)O)C(C)C)C(=O)N[C@@H](Cc1ccc(O)cc1)C(=O)N[C@@H](CCC(N)=O)C(=O)N[C@@H](Cc1ccccc1)C(=O)N[C@H](C(=O)N[C@@H](CC(=O)O)C(=O)N[C@@H](CCCCN)C(=O)N[C@@H](CC(=O)O)C(=O)N[C@@H](CCCCN)C(=O)N[C@@H](CC(=O)O)C(=O)N[C@@H](CC(N)=O)C(=O)N[C@H](C(=O)N[C@@H](C)C(=O)N1CCC[C@H]1C(=O)N[C@@H](CCCNC(=N)N)C(=O)N[C@@H](CO)C(=O)N[C@@H](CCCCN)C(=O)N[C@H](C(=O)N[C@@H](CO)C(=O)N1CCC[C@H]1C(=O)N[C@@H](CCC(N)=O)C(=O)NCC(=O)N[C@@H](Cc1ccc(O)cc1)C(N)=O)[C@@H](C)CC)C(C)C)[C@@H](C)O` [Example 16, ((3R,6S,12S,15S,18S)-18-(2-(2-aminoacetamido)acetamido)-12-benzyl-15-(3-guanidinopropyl)-6-((R)-1-hydroxyethyl)-5,8,11,14,17-pentaoxo-1-thia-4,7,10,13,16-pentaazacycloicosane-3-carbonyl)-L-threonyl-ADM(22-52)] (H-GG[Abu(4-yl)]RFGTCTVQKLAHQIYQFTDKDKDNVAPRSKISPQGY-NH2; thioether 3-8), 6.8 nM.
